Measured values taken from patent US10413505B1, “Pharmaceutical compositions and methods of using the same” (priority 2017, dated 2019).
Where two headings read alike, the source gives them in different places.

Columns and labels:
[1] = Example 2 urinary pharmacokinetics, normal renal function vs severe renal impairment; settings: for CL renal: human, 160 mg; for 0 to 32 hour urinary recovery (geometric mean) / 0 to 32 hour urinary recovery (mean) / 0 to 32 hour urinary recovery (median): metabolites as cocaine equivalents
Experimental: For the urine analysis of cocaine, BE, and EME, individual urinary recoveries for each analyte were determined over each collection interval as the product of the urine concentration times the urine volume. The total recoveries were determined as the sum of the recoveries over all the intervals. Total urinary recoveries were also expressed as the percentage of the administered dose, after correction for the molecular weight of each analyte. The renal clearances of cocaine, BE, and EME were determined as the urinary recovery (in μg) divided by the plasma AUC over the same time interval (the longest period for which both plasma and urine measurements were available).
Urine was collected prior to dosing and from 0-2, 2-4, 4-8, 8-12, 12-24, and 24-32 hours after the beginning of dose application. […] Testing methods used were consistent with those used by inVentiv Health Clinical Lab, Inc., Miami, Fla., U.S.A. Urinary pharmacokinetic parameters included total urinary recovery (μg), urinary recovery as a percentage of dose, and CLr.

[2] = Example 3 urinary pharmacokinetics, normal hepatic function vs hepatic impairment; type: in vivo, human; settings: for Urine Recovery as % of Dose, Geomean / Urine Recovery as % of Dose, Mean: 0-32 h, single intranasal dose; for CL renal: both sexes, other: intranasal (drug-soaked pledgets in the nasal cavity), 160 mg; for CL renal / dose excreted: human, urine; for dose excreted: other: intranasal, read-out: 0-32 h urinary recovery of unchanged drug as percent of the administered dose
Experimental: Urine was collected prior to dosing and from 0-2, 2-4, 4-8, 8-12, 12-24, and 24-32 hours after beginning of dose application. […] Urinary pharmacokinetic parameters included total urinary recovery (μg), urinary recovery as a percentage of dose, and CLr.

[3] = topical application with cotton pledgets; cited from earlier work
[4] = normal renal function, single intranasal 160 mg cocaine HCl
[5] = severe renal impairment, single intranasal 160 mg cocaine HCl
[6] = normal hepatic function, single intranasal 160 mg cocaine HCl
[7] = subjects with hepatic impairment, 32 hours post administration

In the case of COC(=O)[C@H]1[C@@H](OC(=O)c2ccccc2)C[C@@H]2CC[C@H]1N2C [Cocaine, cocaine, reference compound], the CL renal ([1]; both, urine, other: intranasal (drug-soaked pledgets in the nasal cavity), renal clearance, range observed, renally impaired patients, 32 hours from administration) is reported as 8.8 to 31.9 mL/min, the CL renal ([1]; urine and plasma, inhaled or intranasal, CLr (Geometric Least Squares Mean, ANOVA), Impaired renal function (severe), single intranasal 160 mg cocaine HCl) is reported as 17.3 mL/min and the CL renal ([1]; urine and plasma, inhaled or intranasal, CLr (Geometric Least Squares Mean, ANOVA), Normal renal function, single intranasal 160 mg cocaine HCl) is reported as 26.8 mL/min. The CL renal ([1]; urine and plasma, inhaled or intranasal, Renal Clearance (geometric mean), normal renal function, single intranasal 160 mg cocaine HCl) was 26.9 mL/min, the CL renal ([1]; urine and plasma, inhaled or intranasal, Renal Clearance (geometric mean), severe renal impairment, single intranasal 160 mg cocaine HCl) was 17.3 mL/min and the CL renal ([1]; urine and plasma, inhaled or intranasal, Renal Clearance (mean), normal renal function, single intranasal 160 mg cocaine HCl) was 33.3 mL/min. The CL renal ([1]; urine and plasma, inhaled or intranasal, Renal Clearance (mean), severe renal impairment, single intranasal 160 mg cocaine HCl) was 20.4 mL/min, the CL renal ([1]; urine and plasma, inhaled or intranasal, Renal Clearance (median), normal renal function, single intranasal 160 mg cocaine HCl) was 33.6 mL/min and the CL renal ([1]; urine and plasma, inhaled or intranasal, Renal Clearance (median), severe renal impairment, single intranasal 160 mg cocaine HCl) was 19.6 mL/min. The CL renal ([1]; urine and plasma, inhaled or intranasal, Renal Clearance, CLr (mean), normal renal function, single intranasal 160 mg cocaine HCl) was 33.3 mL/min, the CL renal ([1]; urine and plasma, inhaled or intranasal, Renal Clearance, CLr (mean), severe renal impairment, single intranasal 160 mg cocaine HCl) was 20.3 mL/min and the CL renal ([1]; urine and plasma, inhaled or intranasal, Renal Clearance, CLr (median), normal renal function, single intranasal 160 mg cocaine HCl) was 33.7 mL/min. The CL renal ([1]; urine and plasma, inhaled or intranasal, Renal Clearance, CLr (median), severe renal impairment, single intranasal 160 mg cocaine HCl) was 19.7 mL/min, the “0-32 h Urinary Recovery (geometric mean)” value [1, 4] was 122.8 µg and the “0-32 h Urinary Recovery (mean)” value [1, 4] was 164.2 µg. The “0-32 h Urinary Recovery (median)” value [1, 4] was 126.6 µg, the “0 to 32 hour urinary recovery (geometric mean)” value [1, 4] was 0.086 % of administered dose and the “0 to 32 hour urinary recovery (mean)” value [1, 4] was 0.115 % of administered dose. The “0 to 32 hour urinary recovery (median)” value [1, 4] was 0.089 % of administered dose, the “CLr, percent lower (reduction) than in normal subjects” value ([1]; severe renal impairment vs normal renal function) was “approximately 36%” and the “CLr Ratio Impaired/Normal” value ([1]; severe renal impairment vs normal renal function, ANOVA) was 64.33%. The “0-32 h Urinary Recovery (geometric mean)” value [1, 5] was 102.7 µg, the “0-32 h Urinary Recovery (mean)” value [1, 5] was 138.5 µg and the “0-32 h Urinary Recovery (median)” value [1, 5] was 89.8 µg. The “0 to 32 hour urinary recovery (geometric mean)” value [1, 5] was 0.072 % of administered dose, the “0 to 32 hour urinary recovery (mean)” value [1, 5] was 0.097 % of administered dose and the “0 to 32 hour urinary recovery (median)” value [1, 5] was 0.063 % of administered dose. The “Urine Recovery as % of Dose, Geomean” value ([2]; Impaired hepatic function) was 0.071 % of Dose, the “Urine Recovery as % of Dose, Mean” value ([2]; Impaired hepatic function) was 0.143 % of Dose and the “Urine Recovery as % of Dose, Geomean” value ([2]; Normal hepatic function) was 0.057 % of Dose. For the same compound, the “Urine Recovery as % of Dose, Mean” value ([2]; Normal hepatic function) was 0.072 % of Dose, the CL renal ([2]; Impaired hepatic function, Table 26, read-out: CLr Geomean (converted)) was 7.8 mL/min and the CL renal ([2]; Impaired hepatic function, Table 26, read-out: CLr Mean (converted)) was 16.6 mL/min. For the same compound, the CL renal ([2]; Normal hepatic function, Table 26, read-out: CLr Geomean (converted)) was 19.5 mL/min, the CL renal ([2]; Normal hepatic function, Table 26, read-out: CLr Mean (converted)) was 29.8 mL/min and the CL renal ([2]; hepatically impaired patients, 32 hours from administration, read-out: renal clearance, range observed) was 1.27 to 32 mL/min. The CL renal ([2]; subjects with hepatic impairment, Table 30, read-out: Renal Clearance, geometric mean (converted)) was 7.79 mL/min, the CL renal ([2]; subjects with hepatic impairment, Table 30, read-out: Renal Clearance, mean (converted)) was 16.6 mL/min and the CL renal ([2]; subjects with hepatic impairment, Table 30, read-out: Renal Clearance, median (converted)) was 15.6 mL/min. For the same compound, the CL renal ([2]; subjects with hepatic impairment, read-out: Renal Clearance, geometric mean (converted)) was 7.79 mL/min, the CL renal ([2]; subjects with hepatic impairment, read-out: Renal Clearance, mean (converted)) was 16.6 mL/min and the CL renal ([2]; subjects with hepatic impairment, read-out: Renal Clearance, median (converted)) was 15.6 mL/min. The CL renal ([2]; subjects with normal hepatic function, Table 29, read-out: Renal Clearance, geometric mean (converted)) was 19.5 mL/min, the CL renal ([2]; subjects with normal hepatic function, Table 29, read-out: Renal Clearance, mean (converted)) was 29.8 mL/min and the CL renal ([2]; subjects with normal hepatic function, Table 29, read-out: Renal Clearance, median (converted)) was 22 mL/min. For the same compound, the CL renal ([2]; subjects with normal hepatic function, read-out: Renal Clearance, geometric mean (converted)) was 19.5 mL/min, the CL renal ([2]; subjects with normal hepatic function, read-out: Renal Clearance, mean (converted)) was 29.8 mL/min and the CL renal ([2]; subjects with normal hepatic function, read-out: Renal Clearance, median (converted)) was 22 mL/min. For the same compound, the dose excreted ([2]; hepatic impairment) was 0.071%, the dose excreted ([2]; normal hepatic function) was 0.057% and the “0-32 h Urinary Recovery (geometric mean)” value [2, 6] was 81.5 µg. For the same compound, the “0-32 h Urinary Recovery (mean)” value [2, 6] was 102.25 µg, the “0-32 h Urinary Recovery (median)” value [2, 6] was 108.1 µg and the “0-32 h Urinary Recovery (geometric mean)” value [2, 7] was 101.4 µg. For the same compound, the “0-32 h Urinary Recovery (mean)” value [2, 7] was 204 µg, the “0-32 h Urinary Recovery (median)” value [2, 7] was 193.5 µg and the “fraction absorbed from a cottonoid pledget” value [3] was “approximately 37%”.
